The target in one experiment is Coagulation factor X (Homo sapiens, UniProt P00742). Kind of experiment: Inhibitory activity against Coagulation factor Xa.
Another experiment concerns the target Prothrombin (Homo sapiens, UniProt P00734).

Molecules are shown by their SMILES.

The Ki is a measure of affinity in units of concentration, obtained from inhibition or displacement.

Sequence of Coagulation factor X (P00742 41-179 limits assumed): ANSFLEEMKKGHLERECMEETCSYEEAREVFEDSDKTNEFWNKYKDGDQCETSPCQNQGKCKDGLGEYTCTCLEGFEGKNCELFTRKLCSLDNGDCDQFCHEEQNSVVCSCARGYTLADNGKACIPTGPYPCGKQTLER
Sequence of Coagulation factor X (P00742 235-488 limits assumed): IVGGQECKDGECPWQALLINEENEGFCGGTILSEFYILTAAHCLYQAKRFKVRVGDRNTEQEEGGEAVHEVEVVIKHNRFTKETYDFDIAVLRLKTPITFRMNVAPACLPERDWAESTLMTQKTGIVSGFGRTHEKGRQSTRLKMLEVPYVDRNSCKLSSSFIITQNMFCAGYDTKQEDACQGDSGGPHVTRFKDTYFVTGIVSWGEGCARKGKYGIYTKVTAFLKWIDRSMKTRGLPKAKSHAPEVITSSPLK
Description for Prothrombin: Inhibitory activity against thrombin

With `CC(=N)N1CCC(Oc2ccc(C(Cc3ccc4ccc(C(=N)N)cc4c3)C(=O)O)cc2)CC1` (stereo not drawn), the inhibition constant Ki on Coagulation factor X stood at 13 nM.

In the case of `C[C@H]1CNc2cc(S(=O)(=O)N[C@H](CCCNC(=N)N)C(=O)N3CCCCC3C(=O)O)ccc2C1` (stereo partly drawn), the Ki on Prothrombin was 19 nM. `O=S(=O)(Nc1cccc(OCCNc2ccncc2)c1)c1ccccc1`: at Prothrombin, the inhibition constant Ki is 23 nM.

These data come from ChEMBL document CHEMBL1132353, “New 4-point pharmacophore method for molecular similarity and diversity applications: overview of the method and applications, including a novel approach to the design of combinatorial libraries containing privileged substructures” (J Med Chem, 1999).
